Experimental data as given in US9187396B2, “Compositions and methods for the treatment of glomerulonephritis” (Avexxin AS, priority 2009, dated 2015).

Key:
[1] = test system: IIA-sPLA2 protein expression in mesangial cells; assay: cytokine-stimulated sPLA2 protein expression and secretion, Western blot; assay type: cell-based, rat; conditions: IL-1β (1 nM), supernatants
Method: (§1) FIGS. 2A to 2C show the effect of the inhibitors of the examples on cytokine-stimulated sPLA2 protein (FIG. 2A) and mRNA (FIG. 2B) expression and promoter activity in mesangial cells. Quiescent cells were stimulated with either DMEM (−), or IL-1β (1 nM) in the absence (−) or presence of AKH-217 (etOH), vehicle control. In FIG. 2A, supernatants were taken for protein precipitation and precipitated proteins were separated by SDS-PAGE and subjected to a Western blot analysis using a monoclonal antibody against rat sPLA2. […] In FIG. 2B, cells were taken for RNA extraction and subjected to quantitative PCR analysis of rat IIA-sPLA2 and 18 S RNA. ΔΔCt values were calculated and results are expressed as % of maximal IL-1β-stimulated response and are means+S.D. (n=3). In FIG. 2C, cells were transfected with the sPLA2 promoter construct plus a plasmid coding for the Renilla luciferase. After transfection, cells were stimulated for 24 h with vehicle (−), IL-1β (1 nM), or IL-1β plus 10 μM of AKH-217. sPLA2 promoter activity was calculated and results are expressed as relative luciferase units (RLU) and are means±S.D. (n=3).
(§2) It has been previously shown that the cytokine-induced PGE2 formation in mesangial cells involves both sPLA2 and cPLA2 activation (Pfeilschifter et al., 1993), we then investigated the effect of the inhibitors above on sPLA2 protein and mRNA expressions. […]

[2] = test system: IIA-sPLA2 mRNA expression in mesangial cells; assay: cytokine-stimulated IIA-sPLA2 mRNA expression, quantitative PCR; assay type: cell-based, rat; conditions: IL-1β (1 nM)
Method: as §1, §2

rat IIA-sPLA2 promoter = assay: sPLA2 promoter activity, luciferase reporter gene assay; assay type: cell-based; conditions: IL-1β (1 nM) plus 10 μM compound, 24 h
Method: as §1, §2

[3] = test system: Nitric oxide (NO) formation in rat renal mesangial cells; assay: cytokine-stimulated NO formation in mesangial cells (Griess Reaction assay); assay type: cell-based; conditions: IL-1β (1 nM), supernatant
Method: Quiescent cells were stimulated with either DMEM (−), IL-1β (1 nM; +), in the absence or presence of the indicated concentrations of AKH-217, AVX002, or AACOCF3. Supernatants were collected and taken for nitric oxide (NO) quantification by using a Griess Reaction assay. Data are expressed as μM of NO in the supernatant and are means±S.D. (n=3).
To see whether this effect is due to altered gene transcription of iNOS, luciferase reporter gene assays were performed to measure iNOS promoter activity. A 4.5 kb fragment of the rat iNOS promoter was kindly provided by Dr. K. F. Beck (pharmazentrum frankfurt).

[4] = test system: iNOS protein expression in mesangial cells; assay: cytokine-stimulated iNOS protein expression, Western blot; assay type: cell-based, rat; conditions: IL-1β (1 nM)
Method: (§3) FIGS. 4A to 4C show the effect of the inhibitors of the examples on cytokine-stimulated iNOS protein (FIG. 4A) and mRNA (FIG. 4B) expression and promoter activity in mesangiai cells. Quiescent cells were stimulated with either vehicle (DMEM), IL-1β (1 nM), in the absence (−) or presence of the indicated concentrations (in μM) of AVX001 and AVX002. EtOH, vehicle control. In FIG. 4A, cells were taken for protein extraction and equal amount of. protein were separated by SDS-PAGE and subjected to a Western blot analysis using a polyclonal antibody against iNOS at a dilution of 1:2000. Data are representative of at least 3 independent experiments giving similar results. In FIG. 4B, cells were taken for RNA extraction and subjected to quantitative PCR analysis of rat iNOS and 18 S RNA. ΔΔCt values were calculated and results are expressed as % of maximal IL-1β response and are means±S.D (n=3). In FIG. 4C, cells were transfected with the rat iNOS promoter construct plus a plasmid coding for the Renilla luciferase. After transfection, cells were stimulated with vehicle (−), IL-1β (1 nM), or IL-1β plus 10 μM of AVX001. iNOS promoter activity was calculated and results are expressed as relative luciferase units (RLU) and are means±S.D.(n=3).
(§4) To see whether this effect is due to altered gene transcription of iNOS, luciferase reporter gene assays were performed to measure iNOS promoter activity. […]

rat iNOS promoter = assay: iNOS promoter activity, luciferase reporter gene assay; assay type: cell-based; conditions: IL-1β (1 nM) plus 10 μM compound
Method: as §3, §4

mesangial cells = assay: [3H]thymidine incorporation in mesangial cells (proliferation); assay type: cell-based, rat; conditions: insulin (100 ng/ml), IGF (50 ng/ml) or ATP (100 μM), 24 h
Method: FIGS. 5A and 5B show the effect of the inhibitors of the examples on [^3H]thymidine incorporation in mesangial cells. In FIG. 5A, quiescent cells were stimulated for 24 h with vehicle (DMEM), or 100 μM of ATP in the absence (−) or presence of the indicated concentrations of AVX001 or AVX002, in the presence of [^3H]thymidine. In FIG. 5B, cells were stimulated for 24 h with insulin (100 ng/ml) or IGF (50 ng/ml) in the absence (−) or presence of 10 μM of AVX001 or AVX002, in the presence of [^3H]thymidine. Thymidine incorporated into DNA was determined and results are expressed as % of control and are means±S.D. (n=3). Glomerulonephritis is characterized in a first early phase by increased mesangial apoptosis which in a second phase is replaced by an opposite event, i.e. hyperproliferation of mesangial cells. Many previous studies have shown that quiescent mesangial cells in culture can re-enter the cell cycle when exposed to various growth factors, including PDGF, insulin, insulin-like growth factor (IGF), or extracellular nucleotides such as ATP and UTP. […] In the presence of either AKH217 or AVX002, agonist-stimulated [^3H]thymidine incorporation is reduced (FIGS. 5A and 5B). Similar data were also obtained when cells were stimulated with PDGF.

phospho-p65 (NFκB) = assay: IL-1β-stimulated NFκB activation, phospho-p65 Western blot; assay type: cell-based, rat; conditions: IL-1β (2 nM) 30 min, 10 μM compound pretreated 2 h
Method: FIGS. 6A to 6C show the effect of the inhibitors of the examples on IL-1β-stimulated NFκB activation in mesangial cells. In FIG. 6A, quiescent cells were stimulated for 30 min with either vehicle (DMEM), or IL-1β (2 nM) in the absence (−) or presence (+) of AVX001 or AVX002 (10 μM, pretreated 2 h). Thereafter, cell lysates were separated by SDS-PAGE and subjected to a Western blot analysis using a polyclonal antibody against phospho-p65 (NFκB) (upper panel), HuR as a loading control (middle panel), and IκB (lower panel). Data in FIG. 6A show duplicates of one representative experiments. FIGS. 6B and 6C show the densitometric evaluation of NFkB and IkB bands.
NFkB activation was measured by Western blot analyses by detecting the amount of phospho-p65 which represents the active transcription factor subunit.

- effect on IL-1β-stimulated sPLA2 promoter activity (rat IIA-sPLA2 promoter): completely reduced
- effect on IL-1β-stimulated iNOS promoter activity (rat iNOS promoter): completely lost
Structure (SMILES): CC/C=C\C/C=C\C/C=C\C/C=C\CC/C=C/CSCC(=O)C(F)(F)F [AKH-217]
- effect on IIA-sPLA2 protein expression and secretion [1]: able to reduce
- effect on IIA-sPLA2 mRNA expression [2]: able to reduce
- effect on IL-1β-stimulated NO formation [3]: reduced in a dose-dependent manner
- effect on IL-1β-induced iNOS protein expression [4]: down-regulated
- effect on agonist-stimulated [3H]thymidine incorporation (mesangial cells): reduced
- effect on IL-1β-induced increase of phospho-p65 (phospho-p65 (NFκB)): reduced
